Tested on: T lymphocytes
Test: Intracellular Ca2+ signalling in single adherent T lymphocytes loaded with Indo-1 (real-time fluorescence)
Type: cell-based, human
Details: 7 μM ionomycin; Indo-1-loaded T cells; data not shown
Protocol: Early events of intracellular Ca^2+ signalling after EPR-1 occupancy were characterized in real-time fluorescence measurements at the single cell level (Altieri, et al., Biochem. J. 288: 465 (1992)). Freshly isolated T lymphocytes were attached onto Cell-Tak-(Biopolymers, Farmington, Conn.)-coated optical grade glass coverslips (22 mm^2 diameter and <[…] thickness), and loaded intracellularly with 1 μM of the Ca^2+ -sensitive fluorescent dye Indo-1/AM (Grynkiewicz, et al., J. Biol. Chem. 260: 3440 (1985)) (Calbiochem) in 145 mM NaCl, 5 mM KCl, 1 mM Na2 HPO4, 2.5 mM CaCl2, 10 mM glucose, 25 mM HEPES, 0.5 mM MgSO4 for 45 minutes at 37° C. Cells were gently washed in the same loading buffer, and analyzed in real time fluorescence measurements in digitalized imaging using the interactive laser cytometer ACAS 470, as described (Altieri, et al., Id. (1992)). […] After 125 seconds from the addition of the primary mAb, 50 μg/ml aliquots of goat anti-mouse F(ab')2 fragments were added as a cross-linking reagent, and fluorescence changes in the target cells were monitored continuously during a 3-minute interval. Changes in cytosolic free [Ca^2+ ]i under the various conditions tested are expressed as ratio of Detector 1 (free Indo-1, 485 nm wavelength)/Detector 2 (Indo-1:Ca^2+ complex, 405 nm wavelength).

## C[C@H](CCC(=O)O)C[C@H](C)C[C@H](C)C(=O)/C=C(\O)[C@H](C)C[C@H](C)C/C=C/[C@@H](C)[C@@H](O)[C@@H](C)[C@@H](O)C[C@@H]1CC[C@@](C)([C@H]2CC[C@@](C)([C@@H](C)O)O2)O1 [ionomycin]
  cytosolic free [Ca2+]i response: large and sustained increase

Reference: patent US6238875A, “Diagnostic methods useful in the characterization of lymphoproliferative disease characterized by increased EPR-1” (The Scripps Research Institute, priority 1994, dated 2001)
